A short description of one data set: in vitro. The arrangement: CellTiter-Glo viability of parental Ba/F3 cells, counter-screen. Particulars: mouse, parental ba/f3 cells. Here is the method:
To obtain the GI50 value of a substance, cell viability was measured using MTT (G4000, Promega, USA) for KM12(Luc) cell and Cell titer glo (G7572, Promega, USA) for other cell lines. For adherent cells, cells were seeded at 5,000 cells/well in a 96-well plate and treated with a substance one day after cell seeding. For suspension cells, 10,000 cells/well were seeded and the substance was treated after 4 h stabilization of cells. The substance was treated at 10 points of 1:3 serial dilution (0–100 µmol/L) for 72 h. For MTT assay, 15 µL dye solution was added to each well and incubated 4 h at 37°C. 100 µL of solubilization solution was added and followed 1 hr incubation. Absorbance at 570 nm of each well was recorded using EnVision microplate reader (Perkin Elmer). For Cell titer glo assay, Cell titer glo reagent was treated in each well and measured the luminescence by EnVision microplate reader (Perkin Elmer). Viable cells in each well were normalized by using 0.5% DMSO-treated wells (100%). The inhibitor dose−response curve was fitted and GI50 values were calculated using Prism 7.0 software (GraphPad). All assays were performed in duplicate and the standard deviation (SD) was determined from two independent experiments. […] Cell viability after 72 h exposure to the indicated inhibitors, determined by using a cell titer glo assay in duplicate mode. […]

The next data set deals with T1, TRKA.
T1 construct: ETV6 (1-336)-NTRK1 kinase domain (434-790) fusion expressed in Ba/F3
Kind of data set: cells. The arrangement: species or system Ba/F3; CellTiter-Glo anti-proliferation of Ba/F3 cells transformed with ETV6-NTRK fusions. Particulars: Mus musculus, BaF3, 72 h, read-out: LOXO195 GI50. How it is done: (§1) To obtain the GI50 value of a substance, cell viability was measured using MTT (G4000, Promega, USA) for KM12(Luc) cell and Cell titer glo (G7572, Promega, USA) for other cell lines. For adherent cells, cells were seeded at 5,000 cells/well in a 96-well plate and treated with a substance one day after cell seeding. For suspension cells, 10,000 cells/well were seeded and the substance was treated after 4 h stabilization of cells. The substance was treated at 10 points of 1:3 serial dilution (0–100 µmol/L) for 72 h. For MTT assay, 15 µL dye solution was added to each well and incubated 4 h at 37°C. 100 µL of solubilization solution was added and followed 1 hr incubation. Absorbance at 570 nm of each well was recorded using EnVision microplate reader (Perkin Elmer). For Cell titer glo assay, Cell titer glo reagent was treated in each well and measured the luminescence by EnVision microplate reader (Perkin Elmer). Viable cells in each well were normalized by using 0.5% DMSO-treated wells (100%). The inhibitor dose−response curve was fitted and GI50 values were calculated using Prism 7.0 software (GraphPad). All assays were performed in duplicate and the standard deviation (SD) was determined from two independent experiments. To investigate the inhibitory activity of AZD4547 against clinically relevant TRK mutants which have resistance to the known TRK inhibitors ([8], [44]), we established Ba/F3 cell lines harboring the ETV6-NTRKs fusion genes (NTRK1, NTRK1G595R, NTRK1G667A, NTRK1G667C, NTRK1G667S and NTRK2) ( Supplementary Figure 2 ). The mutation status of each established cell line was confirmed by sequencing of its cDNA ( Supplementary Figure 2 ). The anti-proliferation activity of AZD4547 was then measured in each cell line ( Figure 2A and Table S2 ). […] However, AZD4547 has no inhibitory activity against Ba/F3 harboring clinically relevant TRKs mutants including TRKA G595R, TRKA G667S, TRKA G667C and TRKA G667A. We next evaluated if AZD4547 is capable of suppressing the phosphorylation of TRKA/B in Ba/F3 cell lines ( Figure 2B ). […] Also, phosphorylation of TRKA/B is almost completely abolished using 1 µM of AZD4547. […] (A) Summary of GI50s of AZD4547 against Ba/F3: TRKA mutants or TRKB. Cell viability after 72 h exposure to the indicated inhibitors, determined by using a cell titer glo assay in duplicate mode. Data was plotted as mean GI50 ± SD of two independent experiments. (B) AZD4547 inhibits phosphorylation of TRKA/B and PLC-gamma in Ba/F3 harboring TRKA and TRKB, respectively. […] Data are representative of three independent experiments.

A further data set concerns T2, TRKA G667C.
T2 construct: ETV6 (1-336)-NTRK1 kinase domain (434-790) fusion expressed in Ba/F3
Kind of data set: cells. Details: species or system Ba/F3; CellTiter-Glo anti-proliferation of Ba/F3 cells transformed with ETV6-NTRK fusions. Particulars: Mus musculus, BaF3, 72 h, read-out: LOXO195 GI50. Here is the method: as §1

A further data set concerns T3, TRKB.
T3 construct: ETV6 (1-336)-NTRK2 kinase domain (455-822) fusion expressed in Ba/F3
Briefly: cells. Particulars: Mus musculus, BaF3, 72 h, read-out: LOXO195 GI50. The arrangement: species or system Ba/F3; CellTiter-Glo anti-proliferation of Ba/F3 cells transformed with ETV6-NTRK fusions. How it is done:
as §1

The test system of the next data set is T4, TRKA G667A.
T4 construct: ETV6 (1-336)-NTRK1 kinase domain (434-790) fusion expressed in Ba/F3
Kind of data set: cells. The arrangement: species or system Ba/F3; CellTiter-Glo anti-proliferation of Ba/F3 cells transformed with ETV6-NTRK fusions. Particulars: Mus musculus, BaF3, 72 h, read-out: LOXO195 GI50. How it is done: as §1

The next data set has as its system T5, TRKA G595R.
T5 construct: ETV6 (1-336)-NTRK1 kinase domain (434-790) fusion expressed in Ba/F3
Briefly: cells. The arrangement: species or system Ba/F3; CellTiter-Glo anti-proliferation of Ba/F3 cells transformed with ETV6-NTRK fusions. Particulars: Mus musculus, BaF3, 72 h, read-out: LOXO195 GI50. How it is done:
as §1

The test system of another data set is T6, TRKA G667S.
T6 construct: ETV6 (1-336)-NTRK1 kinase domain (434-790) fusion expressed in Ba/F3
Kind of data set: cells. Particulars: Mus musculus, BaF3, 72 h, read-out: LOXO195 GI50. Details: species or system Ba/F3; CellTiter-Glo anti-proliferation of Ba/F3 cells transformed with ETV6-NTRK fusions. How it is done:
as §1

On to `C[C@@H]1CCc2ncc(F)cc2[C@H]2CCCN2c2ccn3ncc(c3n2)C(=O)N1` [LOXO195], for which the half-maximal cytotoxic concentration (CC50) at 72 h in “in vitro” was above 2000 nM. For the same molecule, the GI50 with TRKA is […]; in the data set on TRKA G667C it was […]; with TRKB, […]; in the data set on TRKA G667A it was 24.1 ± 8.3 nM; with TRKA G595R, […]; with TRKA G667S it was 35.5 ± 2.5 nM.
